Data on nine compounds can be found in paper PMC11510666, “Thiazolidinedione-Conjugated Lupeol Derivatives as Potent Anticancer Agents Through a Mitochondria-Mediated Apoptotic Pathway” (Molecules, 2024).

Values joined by “and” are separate entries in the source; they are usually repeats but may differ in a detail not shown here. Equal entries are not always repeated.

One series relates to human lung cancer A549. Briefly: MTT antiproliferative assay, A549. Format: cell-based. Conditions: 48 h, mean ± SD, three independent experiments. As to the method: (§1) These cell lines were cultured in Dulbecco's Modified Eagle Medium containing 10% (v/v) fetal bovine serum (FBS, Wisent) and 1% (v/v) Penicillin-Streptomycin Solution mixture (Beyotime, Shanghai, China) at 37 °C under 5% CO2. An MTT assay evaluated the cytotoxicity of lupeol derivatives toward the A549, MCF-7, HepG2, and LO2 cell lines. The cells were inoculated into 96-well plates (3 × 10^3 cells/well) and cultured for 24 h at 37 °C in 5% CO2. After that, a gradient concentration of the test drug was added to continue the incubation for 48 h. Subsequently, the MTT solution continued to incubate with the cells for 4 h. Afterward, the upper waste layer was discarded, and DMSO was added ([…], Tianjin, China). After the formazan completely dissolved, the absorbance of each well at 490 nm was measured with a microplate reader. The mean values were derived from three independent experiments.
(In general: Tetrazolium assays rely on reduction of a dye to a coloured formazan, in cell work by metabolically active cells.)

Series [1] relates to human breast cancer MCF-7. Description: MTT antiproliferative assay, MCF-7. Format: cell-based. The note with it: 48 h, mean ± SD, three independent experiments. As to the method:
as §1

Series [2] has as its system human hepatocarcinoma HepG2. Briefly: MTT antiproliferative assay, HepG2. Format: cell-based. The note with it: for SI (selectivity index): IC50 values on L02 cells/HepG2 cells; for IC50: MTT, 48 h, mean ± SD, three independent experiments. As to the method: as §1
A further series relates to human hepatic LO2 cells. Conditions: for IC50: read-out: IC50 LO2, MTT, 48 h, mean ± SD, three independent experiments. The procedure:
as §1

In series [3] the test system is HepG2 cells. Description: Annexin V-FITC/PI double staining, flow cytometry. Format: cell-based, human. The note with it: HepG2, 48 h, blank control 5.75%. The procedure: (§2) To further evaluate compound 12i-induced HepG2 cell apoptosis, HepG2 cells were treated with this compound (at 0, 2, 4, and 8 μM), followed by staining with Acridine Orange/Ethidium bromide (AO/EB). […] Subsequently, we used Annexin V-FITC/PI double staining to characterize the effect of compound 12i based on the total apoptosis rate of HepG2 cells.
HepG2 cells were inoculated into 6-well plates for 24 h, attached via cell adhesion, and then treated with 12i (0, 2, 4, and 8 μM) for 48 h. The cells were harvested and treated with Annexin V-FITC/PI staining solution, and the data were gathered using a flow cytometer (FACS Calibur, BD, Milpitas, CA, USA).
(In flow cytometry, cells or beads pass a laser one at a time.)

Series [4] concerns HepG2 cells. The note with it: HepG2, 2, 4 and 8 μM, increasing concentration. As to the method:
as §2

Series [5] concerns HepG2 cells. Description: Mitochondrial membrane potential, JC-1 staining. Format: cell-based, human. The text has this: MMP depolarization is one of the landmark events of apoptosis. To investigate the impact of 12i on MMP depolarization in HepG2 cells, we used 5,5′,6,6,6,6′-tetrachloro-1,1′,3,3′-tetraethylioiodine carbocyan (JC-1) staining. When the mitochondrial membrane potential is high, JC-1 aggregates in the substrate to form a polymer (J-aggregates), which produces red fluorescence. When the mitochondrial membrane potential is low, JC-1 cannot accumulate in the mitochondrial matrix and exists as a monomer to produce green fluorescence.
HepG2 cells were inoculated into 6-well plates for 24 h, attached via cell adhesion, and then treated with 12i (0, 2, 4, and 8 μM) for 48 h. The cells were cleaned with PBS and treated with JC-1 solution at 25 °C for 20 min, and the data were gathered using a flow cytometer.
HepG2 cells were inoculated into 6-well plates for 24 h, attached via cell adhesion, and then treated with 12i (0, 2, 4, and 8 μM) for 48 h. The cells were cleaned with PBS and treated with JC-1 solution at 25 °C for 20 min, and the samples were collected and imaged using confocal microscopy.

Series [6] deals with Bax, Bcl-2, cleaved caspase-7, cleaved caspase-9 in HepG2 cells. Conditions: HepG2, 2, 4 and 8 μM, 48 h, Western blot. The procedure:
The GAPDH expression level was used as an internal control group.
(§3) HepG2 cells were seeded in 6-well plates at a density of 1 × 10^6 overnight and treated with 12i (2, 4, and 8 μM) for 48 h. They were then washed twice with cooled PBS to remove the medium and lysed using a lysis buffer containing RIPA (Beyotime, Shanghai, China). The protein levels were quantified using a bicinchoninic acid protein assay kit (Beyotime, Shanghai, China). The proteins were separated via SDS-PAGE electrophoresis and transferred to PVDF membranes (Beyotime, Shanghai, China). After blocking with 5% skim milk for 2 h, the membranes were incubated with the primary antibody overnight at 4 °C, followed by 2 h with the specific secondary antibody. The antibodies were sourced commercially, including Bax (5023T, Cell Signaling Technology, Danvers, MA, USA), Bcl2 (3498T, Cell Signaling Technology, Danvers, MA, USA), Caspase-7 (12827T, Cell Signaling Technology, Danvers, MA, USA), Caspase-9 (9508T, Cell Signaling Technology, Danvers, MA, USA), Cleaved-Caspase-7 (8438T, Cell Signaling Technology, Danvers, MA, USA), Cleaved-Caspase-9 (7237T, Cell Signaling Technology, Danvers, MA, USA), GAPDH (2118T, Cell Signaling Technology, Danvers, MA, USA), PI3K (4249T, Cell Signaling Technology, Danvers, MA, USA), p-PI3K (4228T, Cell Signaling Technology, Danvers, MA, USA), AKT (4691T, Cell Signaling Technology, Danvers, MA, USA), p-AKT (4060T, Cell Signaling Technology, Danvers, MA, USA), mTOR (2972T, Cell Signaling Technology, Danvers, MA, USA). Immunoreactive bands were visualized using BeyoECL Plus (Beyotime, Shanghai, China) and scanned in a ChemiDoc MP Imaging System (Bio-Rad, Shanghai, China).

The subject of series [7] is P-Akt, P-PI3K, P-mTOR in HepG2 cells. The note with it: HepG2, 2, 4 and 8 μM, 48 h, Western blot, dose-dependent. As to the method: Therefore, Western blotting was conducted to determine the expression of the key proteins Akt, P-Akt, PI3K, P-PI3K, mTOR, and P-mTOR.
as §3
In general terms: Immunoblotting shows a protein as a band on a membrane.

Series [8] deals with HepG2 cells. Conditions: HepG2, 2, 4 and 8 μM, 48 h, DCFH-DA.
Procedure: After the cells were washed with PBS, the supernatant was removed and incubated with 500 μL of 10 μm/L DCFH-DA solution at 25 °C for 20 min, and the data were gathered using a flow cytometer.
After the cells were washed with PBS, the supernatant was removed and incubated with 500 μL of 10 μm/L DCFH-DA solution at 25 °C for 20 min, and the samples were collected and imaged using confocal microscopy.

As to `C=C(C)C1CCC2(C)CCC3(C)C(CCC4C5(C)CCC(OC(=O)NCCNC(=O)CN6C(=O)SC(=Cc7ccc(F)cc7)C6=O)C(C)(C)C5CCC43C)C12` (centres unmarked) [Compound 12a, Lupeol-3-[(1-Ethylenediaminyl)-4]-5-(4-Fluorobenzylidene)-2,4-Thiazolidinedione], the IC50 is 10.5 ± 0.56 µM with human lung cancer A549, 16.8 ± 1.29 µM in [1], 16.5 ± 0.54 µM in series [2] and 71.03 ± 0.57 µM with human hepatic LO2 cells. The “SI (selectivity index)” value in series [2] is reported as 4.30.

Consider `C=C(C)C1CCC2(C)CCC3(C)C(CCC4C5(C)CCC(OC(=O)NCCNC(=O)CN6C(=O)SC(=Cc7ccc(Cl)cc7)C6=O)C(C)(C)C5CCC43C)C12` (centres unmarked) [Compound 12b, Lupeol-3-[(1-Ethylenediaminyl)-4]-5-(4-Chlorobenzylidene)-2,4-Thiazolidinedione], for which the IC50 worked out at 17.1 ± 1.28 µM in the series on human lung cancer A549, 19.1 ± 1.63 µM in [1], 17.7 ± 0.79 µM in series [2] and 76.87 ± 0.69 µM in the series on human hepatic LO2 cells. Further, the “SI (selectivity index)” value in series [2] was 4.35.

As to `C=C(C)C1CCC2(C)CCC3(C)C(CCC4C5(C)CCC(OC(=O)NCCNC(=O)CN6C(=O)SC(=Cc7ccc(C)cc7)C6=O)C(C)(C)C5CCC43C)C12` (centres unmarked) [Compound 12c, Lupeol-3-[(1-Ethylenediaminyl)-2]-5-(4-Methylbenzylidene)-2,4-Thiazolidinedione], the IC50 came out at 13.4 ± 0.79 µM in the series on human lung cancer A549, 14.3 ± 0.78 µM in series [1], 10.7 ± 0.12 µM in [2] and 40.68 ± 0.31 µM with human hepatic LO2 cells. For the same compound, in [2], the “SI (selectivity index)” value came out at 3.79.

`C=C(C)C1CCC2(C)CCC3(C)C(CCC4C5(C)CCC(OC(=O)NCCNC(=O)CN6C(=O)SC(=Cc7ccc(C(C)(C)C)cc7)C6=O)C(C)(C)C5CCC43C)C12` (centres unmarked) [Compound 12d, Lupeol-3-[(1-Ethylenediaminyl)-4]-5-(4-Tert-Butylphenyl)-2,4-Thiazolidinedione]: the IC50 with human lung cancer A549 was determined as 16.4 ± 0.43 µM; in [1] it was 9.12 ± 0.24 µM; in [2] it was 15.8 ± 0.68 µM; with human hepatic LO2 cells, 59.9 ± 1.03 µM. The “SI (selectivity index)” value in [2] was determined as 3.80.

As to `C=C(C)C1CCC2(C)CCC3(C)C(CCC4C5(C)CCC(OC(=O)NCCNC(=O)CN6C(=O)SC(=Cc7ccccc7OC)C6=O)C(C)(C)C5CCC43C)C12` (centres unmarked) [Compound 12e, Lupeol-3-[(1-Ethylenediaminyl)-4]-5-(2-Methoxybenzylidene)-2,4-Thiazolidinedione], the IC50 in the series on human lung cancer A549 was determined as 13.8 ± 0.76 µM; in series [1], 14.4 ± 0.72 µM; in series [2], 12.9 ± 0.52 µM; in the series with human hepatic LO2 cells, 57.7 ± 1.14 µM. Besides, the “SI (selectivity index)” value in [2] is reported as 4.46.

For `C=C(C)C1CCC2(C)CCC3(C)C(CCC4C5(C)CCC(OC(=O)NCCNC(=O)CN6C(=O)SC(=Cc7ccc(OC)c(OC)c7OC)C6=O)C(C)(C)C5CCC43C)C12` (centres unmarked) [Compound 12f, Lupeol-3-[(1-Ethylenediaminyl)-4]-5-(2,3,4-Trimethoxybenzylidene)-2,4-Thiazolidinedione], the IC50 with human lung cancer A549 was 9.68 ± 0.52 µM; in [1], 10 ± 0.22 µM; in [2] it was 9.43 ± 0.78 µM; with human hepatic LO2 cells, 35.53 ± 0.34 µM. Also, the “SI (selectivity index)” value in series [2] stood at 3.77.

Consider `C=C(C)C1CCC2(C)CCC3(C)C(CCC4C5(C)CCC(OC(=O)NCCNC(=O)CN6C(=O)SC(=Cc7ccco7)C6=O)C(C)(C)C5CCC43C)C12` (centres unmarked) [Compound 12g, Lupeol-3-[(1-Ethylenediaminyl)-4]-5-(2-Furanylmethylene)-2,4-Thiazolidinedione], for which the IC50 amounted to 15.7 ± 1.42 µM in the series on human lung cancer A549, 16.4 ± 0.87 µM in series [1], 14.3 ± 0.56 µM in series [2] and 63.2 ± 1.31 µM in the series with human hepatic LO2 cells. Moreover, in series [2], the “SI (selectivity index)” value turned out to be 4.42.

As for `C=C(C)C1CCC2(C)CCC3(C)C(CCC4C5(C)CCC(OC(=O)NCCNC(=O)CN6C(=O)SC(=Cc7cccs7)C6=O)C(C)(C)C5CCC43C)C12` (centres unmarked) [Compound 12h, Lupeol-3-[(1-Ethylenediaminyl)-4]-5-(2-Thienylmethylene)-2,4-Thiazolidinedione], the IC50 was determined as 13.4 ± 1.08 µM in the series on human lung cancer A549, 17.3 ± 1.28 µM in [1], 18.6 ± 1.49 µM in [2] and 77.5 ± 1.27 µM with human hepatic LO2 cells.

In the series on human lung cancer A549, `C=C(C)C1CCC2(C)CCC3(C)C(CCC4C5(C)CCC(OC(=O)NCCNC(=O)CN6C(=O)SC(=CC(C)C)C6=O)C(C)(C)C5CCC43C)C12` (centres unmarked) [Compound 12i, Lupeol-3-[(1-Ethylenediaminyl)-4]-5-(2-Methylpropylidene)-2,4-Thiazolidinedione] displayed an IC50 of 10.1 ± 0.62 µM. In addition, in series [1], the midpoint of inhibition, the IC50, lay at 8.74 ± 0.34 µM. In addition, in [2] (HepG2, IC50 lupeol / IC50 compound), the “potency against HepG2 relative to lupeol” value was 9.9 fold and 9.91 fold. For the same compound, inhibition in [2] was half-maximal at 4.4 ± 0.02 µM (IC50). In the series with human hepatic LO2 cells, the “cytotoxicity to human hepatic cell LO2 (in words)” value is “weakly cytotoxic” and the IC50 worked out at 29.2 ± 0.53 µM. For the same compound, the total apoptosis rate with HepG2 cells [3] (2 μM) worked out at 11.46%. Besides, the total apoptosis rate in the series with HepG2 cells [3] (4 μM) came out at 22.40%. In the series with HepG2 cells [3] (8 μM), this compound came in with a total apoptosis rate of 60.50%. Besides, in the series on HepG2 cells [4], the “morphological variations after AO/EB staining” value was “the green fluorescence gradually weakened and turned orange–red”. In addition, in the series on HepG2 cells [5] (HepG2, 2, 4 and 8 μM, JC-1 fluorescence microscopy), the “effect on mitochondrial membrane potential (Δψm)” value was “significantly reduce Δψm”. Further, the “monomer rate of JC-1” value with HepG2 cells [5] (HepG2, 48 h, 8 μM, blank control 1.95%) was found to be 35.8%. In addition, in [6] (GAPDH internal control), the Bax expression entry is “upregulate” and the Bcl-2 expression result is reported as “downregulate”. In series [6] (dose dependently), the “cleaved caspase-7 expression level” value is “activated” and the “cleaved caspase-9 expression level” value was “activated”. In addition, in series [7], the “phosphorylation level of P-Akt” value was “reduce the phosphorylation levels”, the “phosphorylation level of P-PI3K” value was “reduce the phosphorylation levels” and the “phosphorylation level of P-mTOR” value is given as “reduce the phosphorylation levels”. Moreover, the ROS production entry in the series on HepG2 cells [8] was “induces ROS production dose-dependently”.

The IC50 is the midpoint of a concentration-inhibition curve.
